Laboratory results as given in ChEMBL document CHEMBL3044636, “Effectiveness of five insecticides for the control of adults and young stages of Cacopsylla melanoneura (Förster) (Hemiptera: Psyllidae) in a semi-field trial” (2010).
Activity calls are given as the source filed them. The calls are words filed in the database; no cut-off is given here.

Columns and labels:
Cacopsylla melanoneura [1] = test: Insecticidal activity against adult of Cacopsylla melanoneura in apple plant assessed as reduction of progeny per female at 787.5 g/ha treated for 14 days measured after 7 days; assay type: functional, organism-based
Cacopsylla melanoneura [2] = test: Insecticidal activity against adult of Cacopsylla melanoneura in apple plant assessed as reduction of progeny per female at 787.5 g/ha treated for 1 hr measured after 7 days; assay type: functional, organism-based
Cacopsylla melanoneura [3] = test: Insecticidal activity against adult of Cacopsylla melanoneura in apple plant assessed as overwintered female mortality at 787.5 g/ha treated for 14 days measured after 3 days relative to control; assay type: functional
Cacopsylla melanoneura [4] = test: Insecticidal activity against adult of Cacopsylla melanoneura in apple plant assessed as overwintered female mortality at 787.5 g/ha treated for 1 hr measured after 1 day relative to control; assay type: functional
Cacopsylla melanoneura [5] = test: Insecticidal activity against young stage of Cacopsylla melanoneura in apple plant assessed as mortality at 787.5 g/ha treated for 14 days measured after 7 days relative to control; assay type: functional
Cacopsylla melanoneura [6] = test: Insecticidal activity against adult of Cacopsylla melanoneura in apple plant assessed as overwintered female mortality at 787.5 g/ha treated for 7 days measured after 3 days relative to control; assay type: functional
Cacopsylla melanoneura [7] = test: Insecticidal activity against young stage of Cacopsylla melanoneura in apple plant assessed as mortality at 787.5 g/ha treated for 7 days measured after 7 days relative to control; assay type: functional
Cacopsylla melanoneura [8] = test: Insecticidal activity against adult of Cacopsylla melanoneura in apple plant assessed as overwintered female mortality at 787.5 g/ha treated for 7 days measured after 1 day relative to control; assay type: functional
Cacopsylla melanoneura [9] = test: Insecticidal activity against adult of Cacopsylla melanoneura in apple plant assessed as overwintered female mortality at 787.5 g/ha treated for 14 days measured after 1 day relative to control; assay type: functional
Cacopsylla melanoneura [10] = test: Insecticidal activity against adult of Cacopsylla melanoneura in apple plant assessed as reduction of progeny per female at 787.5 g/ha treated for 7 days measured after 7 days; assay type: functional, organism-based
Cacopsylla melanoneura [11] = test: Insecticidal activity against young stage of Cacopsylla melanoneura in apple plant assessed as mortality at 787.5 g/ha treated for 1 hr measured after 7 days relative to control; assay type: functional
Cacopsylla melanoneura [12] = test: Insecticidal activity against adult of Cacopsylla melanoneura in apple plant assessed as overwintered female mortality at 787.5 g/ha treated for 1 hr measured after 3 days relative to control; assay type: functional
Cacopsylla melanoneura [13] = test: Insecticidal activity against adult of Cacopsylla melanoneura in apple plant assessed as reduction of progeny per female at 135 g/ha treated for 14 days measured after 7 days; assay type: functional, organism-based
Cacopsylla melanoneura [14] = test: Insecticidal activity against young stage of Cacopsylla melanoneura in apple plant assessed as mortality at 135 g/ha treated for 1 hr measured after 7 days relative to control; assay type: functional
Cacopsylla melanoneura [15] = test: Insecticidal activity against adult of Cacopsylla melanoneura in apple plant assessed as overwintered female mortality at 135 g/ha treated for 7 days measured after 3 days relative to control; assay type: functional
Cacopsylla melanoneura [16] = test: Insecticidal activity against adult of Cacopsylla melanoneura in apple plant assessed as overwintered female mortality at 135 g/ha treated for 14 days measured after 1 day relative to control; assay type: functional
Cacopsylla melanoneura [17] = test: Insecticidal activity against adult of Cacopsylla melanoneura in apple plant assessed as overwintered female mortality at 135 g/ha treated for 1 hr measured after 1 day relative to control; assay type: functional
Cacopsylla melanoneura [18] = test: Insecticidal activity against adult of Cacopsylla melanoneura in apple plant assessed as reduction of progeny per female at 135 g/ha treated for 7 days measured after 7 days; assay type: functional, organism-based
Cacopsylla melanoneura [19] = test: Insecticidal activity against adult of Cacopsylla melanoneura in apple plant assessed as overwintered female mortality at 135 g/ha treated for 1 hr measured after 3 days relative to control; assay type: functional
Cacopsylla melanoneura [20] = test: Insecticidal activity against adult of Cacopsylla melanoneura in apple plant assessed as overwintered female mortality at 135 g/ha treated for 14 days measured after 3 days relative to control; assay type: functional
Cacopsylla melanoneura [21] = test: Insecticidal activity against young stage of Cacopsylla melanoneura in apple plant assessed as mortality at 135 g/ha treated for 7 days measured after 7 days relative to control; assay type: functional
Cacopsylla melanoneura [22] = test: Insecticidal activity against young stage of Cacopsylla melanoneura in apple plant assessed as mortality at 135 g/ha treated for 14 days measured after 7 days relative to control; assay type: functional
Cacopsylla melanoneura [23] = test: Insecticidal activity against adult of Cacopsylla melanoneura in apple plant assessed as reduction of progeny per female at 135 g/ha treated for 1 hr measured after 7 days; assay type: functional, organism-based
Cacopsylla melanoneura [24] = test: Insecticidal activity against adult of Cacopsylla melanoneura in apple plant assessed as overwintered female mortality at 135 g/ha treated for 7 days measured after 1 day relative to control; assay type: functional
Cacopsylla melanoneura [25] = test: Insecticidal activity against young stage of Cacopsylla melanoneura in apple plant assessed as mortality at 300 g/ha treated for 1 hr measured after 7 days relative to control; assay type: functional
Cacopsylla melanoneura [26] = test: Insecticidal activity against adult of Cacopsylla melanoneura in apple plant assessed as overwintered female mortality at 300 g/ha treated for 14 days measured after 3 days relative to control; assay type: functional
Cacopsylla melanoneura [27] = test: Insecticidal activity against adult of Cacopsylla melanoneura in apple plant assessed as overwintered female mortality at 300 g/ha treated for 7 days measured after 1 day relative to control; assay type: functional
Cacopsylla melanoneura [28] = test: Insecticidal activity against adult of Cacopsylla melanoneura in apple plant assessed as reduction of progeny per female at 300 g/ha treated for 7 days measured after 7 days; assay type: functional, organism-based
Cacopsylla melanoneura [29] = test: Insecticidal activity against adult of Cacopsylla melanoneura in apple plant assessed as overwintered female mortality at 300 g/ha treated for 1 hr measured after 1 day relative to control; assay type: functional
Cacopsylla melanoneura [30] = test: Insecticidal activity against adult of Cacopsylla melanoneura in apple plant assessed as overwintered female mortality at 300 g/ha treated for 1 hr measured after 3 days relative to control; assay type: functional
Cacopsylla melanoneura [31] = test: Insecticidal activity against adult of Cacopsylla melanoneura in apple plant assessed as reduction of progeny per female at 300 g/ha treated for 1 hr measured after 7 days; assay type: functional, organism-based
Cacopsylla melanoneura [32] = test: Insecticidal activity against adult of Cacopsylla melanoneura in apple plant assessed as overwintered female mortality at 300 g/ha treated for 14 days measured after 1 day relative to control; assay type: functional
Cacopsylla melanoneura [33] = test: Insecticidal activity against adult of Cacopsylla melanoneura in apple plant assessed as reduction of progeny per female at 300 g/ha treated for 14 days measured after 7 days; assay type: functional, organism-based
Cacopsylla melanoneura [34] = test: Insecticidal activity against young stage of Cacopsylla melanoneura in apple plant assessed as mortality at 300 g/ha treated for 7 days measured after 7 days relative to control; assay type: functional
Cacopsylla melanoneura [35] = test: Insecticidal activity against adult of Cacopsylla melanoneura in apple plant assessed as overwintered female mortality at 300 g/ha treated for 7 days measured after 3 days relative to control; assay type: functional
Cacopsylla melanoneura [36] = test: Insecticidal activity against young stage of Cacopsylla melanoneura in apple plant assessed as mortality at 300 g/ha treated for 14 days measured after 7 days relative to control; assay type: functional

CCOP(=S)(OCC)Oc1nc(Cl)c(Cl)cc1Cl [CHLORPYRIFOS]
Activity (Cacopsylla melanoneura [1]): Active | Activity (Cacopsylla melanoneura [2]): Active | Activity (Cacopsylla melanoneura [3]): 93.3% | Activity (Cacopsylla melanoneura [4]): 100% | Activity (Cacopsylla melanoneura [5]): 100% | Activity (Cacopsylla melanoneura [6]): 100% | Activity (Cacopsylla melanoneura [7]): 100% | Activity (Cacopsylla melanoneura [8]): 100% | Activity (Cacopsylla melanoneura [9]): 93.3% | Activity (Cacopsylla melanoneura [10]): Active | Activity (Cacopsylla melanoneura [11]): 98.3% | Activity (Cacopsylla melanoneura [12]): 100%

CCOc1ccc(C(C)(C)COCc2cccc(Oc3ccccc3)c2)cc1 [ETOFENPROX]
Activity (Cacopsylla melanoneura [13]): Active | Activity (Cacopsylla melanoneura [14]): 98.3% | Activity (Cacopsylla melanoneura [15]): 93.3% | Activity (Cacopsylla melanoneura [16]): 100% | Activity (Cacopsylla melanoneura [17]): 93.3% | Activity (Cacopsylla melanoneura [18]): Active | Activity (Cacopsylla melanoneura [19]): 100% | Activity (Cacopsylla melanoneura [20]): 100% | Activity (Cacopsylla melanoneura [21]): 100% | Activity (Cacopsylla melanoneura [22]): 100% | Activity (Cacopsylla melanoneura [23]): Active | Activity (Cacopsylla melanoneura [24]): 93.3%

O=C(NC(=O)c1c(F)cccc1F)Nc1ccc(Cl)cc1 [DIFLUBENZURON]
Activity (Cacopsylla melanoneura [25]): 98.3% | Activity (Cacopsylla melanoneura [26]): 63.3% | Activity (Cacopsylla melanoneura [27]): 30% | Activity (Cacopsylla melanoneura [28]): Active | Activity (Cacopsylla melanoneura [29]): 20% | Activity (Cacopsylla melanoneura [30]): 56.7% | Activity (Cacopsylla melanoneura [31]): Active | Activity (Cacopsylla melanoneura [32]): 46.7% | Activity (Cacopsylla melanoneura [33]): Active | Activity (Cacopsylla melanoneura [34]): 100% | Activity (Cacopsylla melanoneura [35]): 56.7% | Activity (Cacopsylla melanoneura [36]): 86.7%
